Our source for the EC50 and LC50 values is patent US11589586B2, “Pesticidal and parasiticidal pyrazole-isoxazoline compounds” (BOEHRINGER INGELHEIM ANIMAL HEALTH USA INC., priority 2017, dated 2023).

SMILES strings stand for the structures. pEC50: −log10 of the molar value. Bounds are passed on as bounds.

In one test the test system is A. aegypti L1 larvae. Kind of test: Efficacy against A. aegypti mosquitos (L1 larvae motility, dose response). It counts as in vivo. Conditions: Aedes aegypti; ten A. aegypti L1 larvae, diluted LB media, 25° C., 48h; read-out: EC50 (motility of larvae compared to DMSO control wells). As for the experimental part:
Method A: Efficacy of Compounds Against A. aegypti Mosquitos Compounds were formulated in 100% DMSO are added to microtiter plates containing 180 μl of diluted LB media (Luria-Bertani media is a combination of tryptone, salt and yeast extract). Ten A. aegypti L1 larvae are added and the plates are incubated at 25° C. for 48h. The efficacy of a compound is determined based on the motility of the larvae as compared to average motility of control wells containing DMSO only. A dose response assay was conducted to determine an EC50 value.

Test [1] concerns adult Ctenocephalides felis. Kind of test: Efficacy against fleas when ingested (treated bovine blood membrane feeding). It counts as in vivo. The settings on record: adult Ctenocephalides felis fed on treated bovine blood, 72 hour assessment, compared with untreated controls. An excerpt:
Method B: Efficacy of Compounds Against Fleas when Ingested
A cylindrical test container was filled with 10 adult Ctenocephalides felis. A cylindrical well was closed on one end with a self-sealing flexible film and placed on top of the test container in such a position that the fleas could pierce the film and feed on the contents of the cylinder. The test compound solution was then pipetted into bovine blood and added to the well. The container part with the Ctenocephalides felis was held at 20-22° C. and 40-60% relative humidity while the well part containing the treated blood was held at 37° C. and 40-60% relative humidity. Assessment was performed at 72 hours after application in comparison with untreated controls.

A word on the pEC50: it is the negative decadic logarithm of the EC50, by convention in mol/L. `COCn1nc(C(F)(F)F)cc1C1(C(F)(F)F)CC(c2ccc(C(=O)NCC(=O)NCC(F)(F)F)c(C)c2)=NO1` (centres unmarked) [Compound 2-30, 2-[(4-[5-[1-(methoxymethyl)-3-(trifluoromethyl)-1H-pyrazol-5-yl]-5-(trifluoromethyl)-4,5-dihydro-1,2-oxazol-3-yl]-2-methylphenyl)formamido]-N-(2,2,2-trifluoroethyl)acetamide]: the pEC50 in the test with A. aegypti L1 larvae was greater than 5.00.

As usually defined, the LC50 is the concentration lethal to half of the exposed cells or organisms. A higher LC50 goes with a less lethal substance. In turn, `Cn1nc(C(F)(F)F)cc1C1(C(F)(F)F)CC(c2ccc(C(=O)NCC(=O)NCC(F)(F)F)c3ccccc23)=NO1` (centres unmarked) [Compound 2-2, 2-[(4-[5-[1-methyl-3-(trifluoromethyl)-1H-pyrazol-5-yl]-5-(trifluoromethyl)-4,5-dihydro-1,2-oxazol-3-yl]naphthalen-1-yl)formamido]-N-(2,2,2-trifluoroethyl)acetamide] registered an LC50 in test [1] of less than 20 µM. Moreover, the pEC50 in the test with A. aegypti L1 larvae was greater than 5.00.

For the compound `Cn1nc(C(F)(F)F)cc1C1(C(F)(F)F)CC(c2ccc(Cl)c(C(=O)NC3CC3)c2)=NO1` (centres unmarked) [Compound 2-10, 2-Chloro-N-cyclopropyl-5-[5-[1-methyl-3-(trifluoromethyl)-1H-pyrazol-5-yl]-5-(trifluoromethyl)-4,5-dihydro-1,2-oxazol-3-yl]benzamide], the pEC50 in the test on A. aegypti L1 larvae was greater than 4.70.

For `Cc1cc(C2=NOC(c3cc(C(F)(F)F)nn3C)(C(F)(F)F)C2)ccc1C(=O)NCC(F)(F)F` (centres unmarked) [Compound 2-6, 2-methyl-4-[5-[1-methyl-3-(trifluoromethyl)-1H-pyrazol-5-yl]-5-(trifluoromethyl)-4,5-dihydro-1,2-oxazol-3-yl]-N-(2,2,2-trifluoroethyl)benzamide], the LC50 in test [1] is less than 50 µM. In addition, the pEC50 in the test on A. aegypti L1 larvae was greater than 5.00.

In turn, `Cc1cc(C2=NOC(c3cc(C(F)(F)F)nn3C)(C(F)(F)F)C2)ccc1C(=O)NCC(=O)NCC(F)(F)F` (centres unmarked) [Compound 2-1, 2-[(2-Methyl-4-[5-[1-methyl-3-(trifluoromethyl)-1H-pyrazol-5-yl]-5-(trifluoromethyl)-4,5-dihydro-1,2-oxazol-3-yl]phenyl)formamido]-N-(2,2,2-trifluoroethyl)acetamide] yielded an LC50 in test [1] of less than 20 µM. In the test on A. aegypti L1 larvae, the pEC50 was greater than 5.00.

On to `Cn1nc(C(F)(F)F)cc1C1(C(F)(F)F)CC(c2ccc3c(c2)COC32CN(C(=O)CS(C)(=O)=O)C2)=NO1` (centres unmarked) [Compound 2-3, 1-(5′-(5-(1-methyl-3-(trifluoromethyl)-1H-pyrazol-5-yl)-5-(trifluoromethyl)-4,5-dihydroisoxazol-3-yl)-3′H-spiro[azetidine-3,1′-isobenzofuran]-1-yl)-2-(methylsulfonyl)ethan-1-one], for which, in test [1], the 50% lethal concentration (LC50) was less than 20 µM. The pEC50 in the test on A. aegypti L1 larvae is greater than 5.00.

As to `Cc1cc(C2=NOC(c3cn(C)nc3C(F)(F)F)(C(F)(F)F)C2)ccc1C(=O)NCC(=O)NCC(F)(F)F` (centres unmarked) [Compound 2-11, 2-[(2-methyl-4-[5-[1-methyl-3-(trifluoromethyl)-1H-pyrazol-4-yl]-5-(trifluoromethyl)-4,5-dihydro-1,2-oxazol-3-yl]phenyl)formamido]-N-(2,2,2-trifluoroethyl)acetamide], the pEC50 with A. aegypti L1 larvae is greater than 4.70.

Take `Cn1nc(C(F)(F)F)cc1C1(C(F)(F)F)CC(c2ccc(C(=O)NCC(=O)NCC(F)(F)F)cc2)=NO1` (centres unmarked) [Compound 2-9, 2-[(4-[5-[1-Methyl-3-(trifluoromethyl)-1H-pyrazol-5-yl]-5-(trifluoromethyl)-4,5-dihydro-1,2-oxazol-3-yl]phenyl)formamido]-N-(2,2,2-trifluoroethyl) acetamide]: the pEC50 in the test with A. aegypti L1 larvae was greater than 4.70.

As to `C=CCNC(=O)c1ccc(C2=NOC(c3cc(C(F)(F)F)nn3C)(C(F)(F)F)C2)cc1C` (centres unmarked) [Compound 2-8], the pEC50 in the test on A. aegypti L1 larvae is greater than 4.70.

In test [1], `Cc1cc(C2=NOC(c3cc(C(F)(F)F)nn3C)(C(F)(F)F)C2)ccc1C(=O)NC1CC1` (centres unmarked) [Compound 2-7, N-cyclopropyl-2-methyl-4-[5-[1-methyl-3-(trifluoromethyl)-1H-pyrazol-5-yl]-5-(trifluoromethyl)-4,5-dihydro-1,2-oxazol-3-yl]benzamide] had an LC50 of less than 50 µM. For the same compound, the negative-log EC50 (pEC50) in the test with A. aegypti L1 larvae is greater than 5.00.

Compound `Cc1cc(C2=NOC(c3cc(C(F)(F)F)nn3C)(C(F)(F)F)C2)ccc1C(=O)NCCS(C)(=O)=O` (centres unmarked) [Compound 2-5, N-(2-methanesulfonylethyl)-2-methyl-4-[5-[1-methyl-3-(trifluoromethyl)-1H-pyrazol-5-yl]-5-(trifluoromethyl)-4,5-dihydro-1,2-oxazol-3-yl]benzamide] came in with an LC50 in test [1] of less than 20 µM. For the same compound, the pEC50 with A. aegypti L1 larvae was greater than 5.00.

As for `COCn1nc(C2(C(F)(F)F)CC(c3ccc(C(=O)NCC(=O)NCC(F)(F)F)c(C)c3)=NO2)cc1C(F)(F)F` (centres unmarked) [Compound 2-31, 4-(5-(1-(methoxymethyl)-5-(trifluoromethyl)-1H-pyrazol-3-yl)-5-(trifluoromethyl)-4,5-dihydroisoxazol-3-yl)-2-methyl-N-(2-oxo-2-(2,2,2-trifluoroethylamino)ethyl)benzamide], the pEC50 in the test on A. aegypti L1 larvae is greater than 5.00.

Turning to `CSCCNC(=O)c1ccc(C2=NOC(c3cc(C(F)(F)F)nn3C)(C(F)(F)F)C2)cc1C` (centres unmarked) [Compound 2-4, 2-methyl-4-[5-[1-methyl-3-(trifluoromethyl)-1H-pyrazol-5-yl]-5-(trifluoromethyl)-4,5-dihydro-1,2-oxazol-3-yl]-N-[2-(methylsulfanyl)ethyl]benzamide], the LC50 in test [1] is less than 20 µM. Moreover, the pEC50 with A. aegypti L1 larvae is greater than 5.00.
